Measured values as given in article PMC3687672 (British Journal of Pharmacology, 2013).

Legend:
[1] = target: T1, large-conductance Ca2+-activated K+ (BKCa) channel (Homo sapiens, UniProt Q12791); assay: single-channel inside-out patch clamp; format: cell-based
[2] = target: T1, large-conductance Ca2+-activated K+ (BKCa) channel; assay: whole-cell patch clamp; format: cell-based

T1 sequence (Q12791 whole entry): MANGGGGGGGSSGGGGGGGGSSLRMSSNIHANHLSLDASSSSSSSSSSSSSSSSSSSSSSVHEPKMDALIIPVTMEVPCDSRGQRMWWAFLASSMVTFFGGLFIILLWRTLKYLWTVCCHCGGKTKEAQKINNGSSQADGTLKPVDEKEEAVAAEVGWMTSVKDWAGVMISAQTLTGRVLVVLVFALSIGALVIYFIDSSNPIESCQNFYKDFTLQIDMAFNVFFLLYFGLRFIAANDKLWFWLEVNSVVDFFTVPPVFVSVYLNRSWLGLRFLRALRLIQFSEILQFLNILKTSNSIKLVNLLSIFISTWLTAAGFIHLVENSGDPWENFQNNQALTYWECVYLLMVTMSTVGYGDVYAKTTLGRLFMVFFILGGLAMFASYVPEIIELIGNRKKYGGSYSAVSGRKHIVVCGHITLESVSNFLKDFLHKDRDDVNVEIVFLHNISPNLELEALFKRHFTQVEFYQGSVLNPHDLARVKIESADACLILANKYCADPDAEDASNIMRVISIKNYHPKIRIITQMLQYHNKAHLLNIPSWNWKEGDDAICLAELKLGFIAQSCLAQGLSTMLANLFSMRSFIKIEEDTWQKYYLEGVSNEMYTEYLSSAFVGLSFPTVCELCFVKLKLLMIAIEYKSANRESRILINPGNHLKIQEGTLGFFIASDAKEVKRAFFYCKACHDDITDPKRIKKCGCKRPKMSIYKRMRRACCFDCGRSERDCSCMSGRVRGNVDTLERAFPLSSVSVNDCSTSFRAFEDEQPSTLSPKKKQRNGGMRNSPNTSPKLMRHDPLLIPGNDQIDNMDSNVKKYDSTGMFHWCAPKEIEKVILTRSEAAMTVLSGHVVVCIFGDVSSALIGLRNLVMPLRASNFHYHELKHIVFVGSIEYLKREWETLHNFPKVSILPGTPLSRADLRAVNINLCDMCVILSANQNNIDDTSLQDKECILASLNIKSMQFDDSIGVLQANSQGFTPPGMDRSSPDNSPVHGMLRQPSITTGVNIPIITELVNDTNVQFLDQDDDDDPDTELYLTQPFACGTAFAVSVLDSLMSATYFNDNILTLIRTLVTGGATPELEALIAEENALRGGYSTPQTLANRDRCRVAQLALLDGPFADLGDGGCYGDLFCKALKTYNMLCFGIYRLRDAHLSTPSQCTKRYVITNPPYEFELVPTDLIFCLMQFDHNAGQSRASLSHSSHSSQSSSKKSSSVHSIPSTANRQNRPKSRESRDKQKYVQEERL

Row | SMILES | single-channel inside-out patch clamp; whole-cell patch clamp with GDPbetaS [1] [µM] | whole-cell patch clamp [2] [µM]
1 | CCCCC/C=C\C/C=C\C/C=C\C/C=C\CCCC(=O)NCC(=O)O [NAGly] | 3 | 
2 | CC(C)(O)[C@H]1O[C@H]2CC[C@@]3(C)[C@@](O)(CC[C@H]4Cc5c([nH]c6ccccc56)[C@@]43C)C2=CC1=O [paxilline] |  | 1
